From patent US12697328B2, “Methods for treating metastasis with cathepsin C inhibitors” (Shanghai Institute of Nutrition and Health, Chinese Academy …, priority 2020, dated 2026)

Tests used:
murine neutrophils = assay: Two-chamber migration of neutrophils recruited by media of neutrophils pre-treated with 4T07 CM; format: cell-based; conditions: media of neutrophils pre-treated with CM of 4T07 with CTSC overexpressed; FIG. 7E
Method: The procedure of two-chamber migration assays was previously described (Zhuang et al., “Differential effects on lung and bone metastasis of breast cancer by Wnt signalling inhibitor DKK1,” Nat. Cell Biol. 19:1274-1285 (2017)). Briefly, 5×10^5 freshly isolated neutrophils in RPMI 1640 were added to the upper chamber (363096, BD), and a 1:1 mixture of RPMI 1640 and cancer cell CM, or medium from neutrophils cultured in cancer cell CM, was added to the lower chamber as the chemoattractant. The migrated cells in the lower chamber were counted after 3 h.

[1] = test system: SCP28 cells overexpressing CTSC; assay: Mice injected with CTSC-overexpressed SCP28 cells, treated with Sivelestat or DNase I; format: in vivo
Method: Female BALB/c and athymic mice aged 6-10 weeks were used in all animal experiments. Orthotropic and intravenous injection were performed as previously described (Zhuang et al., “Differential effects on lung and bone metastasis of breast cancer by Wnt signalling inhibitor DKK1,” Nat. Cell Biol. 19:1274-1285 (2017)). For EdU labeling assays, nude mice were intravenously injected with 2×10^5 cancer cells, followed by intraperitoneal (i.p.) injection of 100 ng/mouse EdU (ThermoFisher, C10640) 24 h before lung harvest. For neutrophil depletion assays, mice received 2 initial i.p. injection (200 μg/mouse) of 1A8 Ly6G antibody (BE0075-1, BioXCel) or rat IgG control (14131, Sigma) every 3 days before cancer cell injection and then maintenance injection twice a week after cancer cell injection. For Sivelestat or DNase I treatment, mice were i.p. injected with Sivelestat (50 mg/kg) or DNase I (5 mg/kg) 2 h before cancer cell injection, followed by daily injection of the reagents for 9 days, and then maintenance shots twice a week. For GSK484 treatment, mice were treated with GSK484 (20 mg/kg, i.p. daily shots for 20 days from day 7, and then maintenance shots every two days) following orthotopic injection of AT3 or 4T07 cells. For IL-1b blocking or IL6R/CCR1 inhibition assays, mice were orthotopically inoculated with 5×10^4 AT3 and treated with i.p. administration of IgG or the IL-1β blocking antibody (100 μg per mouse), or the IL6R blocking antibody (100 μg per mouse) and the CCR1 inhibitor BX471 (20 mg/kg), every two days from day 7 until the mice were sacrificed. For brensocatib treatment, BALB/c mice were orthotopically inoculated with 1×10^5 4T1 cells, and C57/BL6 mice were orthotopically inoculated with 2×10^5 AT3. […]
The number of myeloperoxidase-positive neutrophils around GFP^+ cancer cells in the lungs of mice 72 h after injection with CTSC-overexpressed SCP28 is quantified by immunostaining of the lung tissue. […]

4T1 breast cancer cells = assay: Tumor sphere formation of 4T1 cells in medium of neutrophils pre-treated with 4T1 CM; format: cell-based; conditions: 4T1 cells in medium of neutrophils pre-treated with CM of 4T1; vs untreated control; FIG. 10F
CTSC = target: T1, CTSC (Homo sapiens, UniProt P53634); assay: CTSC protein expression in metastatic tumor cells; format: cell-based; conditions: a number of metastatic tumor cell types treated with brensocatib; FIGS. 11A-C
T1 construct: The CTSC protein secretion level in tumor cells with different capabilities of metastasis to various target organs; endogenous in cells; host or cells: metastatic breast cancer cells (MDA-MB-231, SP16, SP16L; bone-metastatic lines) and bone-metastatic lung cancer cells
Method: Cultured cells were collected by scraper or trypsinized and then lysed with lysis buffer (50 mM Tris-HCl, 150 mM NaCl, 1% NP-40 detergent, 0.5% sodium deoxycholate, 0.1% SDS with phosphatase and protease inhibitors), and dispersed tissue were homogenized in RIPA buffer on ice for 15 min, followed by centrifugation at 17,000 g for 15 min. The protein concentration was measured with a BCA Protein Assay Kit. Proteins of 10 μg, 80 μg, 30 μg were loaded for membrane proteins, IL-1β processing, p65 phosphorylation and the other assays, respectively, and separated on 8-12% SDS-polyacrylamide gel. For cancer cell conditioned medium (CM) collection, cells were grown to ~80% confluence in 10 cm culture dishes. After three times washing with serum-free medium at 37° C., the cells were incubated in serum-free medium at 37° C. for 24 h. The CM were collected, centrifuged at 2,000 g for 10 min, filtrated by 0.22 μm filters, stored at −80° C. until used. The secreted proteins in CM were collected by TCA precipitation. Briefly, 25% v/v TCA was added into 1 ml CM with phosphatase and protease inhibitors, incubated overnight at 4° C., and then centrifuged at 20,000 g for 60 min, after which the supernatant was discarded and the pellet was washed twice with 1 ml pre-chilled acetone, centrifuged again at 20,000 g for 5 min at 4° C. […]

[2] = test system: bone-metastatic breast cancer cell SCP2; assay: Tumor sphere formation of bone-metastatic breast cancer cells in neutrophil medium; format: cell-based; conditions: neutrophils cultured with cancer cell CM with or without brensocatib, FIG. 11E
Method: The neutrophils are cultured with conditioned medium from the cancer cells with or without brensocatib treatment to activate NETosis, and then the neutrophil medium was used in tumor sphere formation of bone and liver-metastatic breast cancer cells to analyze the effect of neutrophil medium to facilitate tumor cell growth. The data are shown in FIG. 11E for bone-metastatic breast cancer cell SCP2 and FIG. 11H for liver-metastatic breast cancer cell SCP16.

T1 sequence (P53634 25-463): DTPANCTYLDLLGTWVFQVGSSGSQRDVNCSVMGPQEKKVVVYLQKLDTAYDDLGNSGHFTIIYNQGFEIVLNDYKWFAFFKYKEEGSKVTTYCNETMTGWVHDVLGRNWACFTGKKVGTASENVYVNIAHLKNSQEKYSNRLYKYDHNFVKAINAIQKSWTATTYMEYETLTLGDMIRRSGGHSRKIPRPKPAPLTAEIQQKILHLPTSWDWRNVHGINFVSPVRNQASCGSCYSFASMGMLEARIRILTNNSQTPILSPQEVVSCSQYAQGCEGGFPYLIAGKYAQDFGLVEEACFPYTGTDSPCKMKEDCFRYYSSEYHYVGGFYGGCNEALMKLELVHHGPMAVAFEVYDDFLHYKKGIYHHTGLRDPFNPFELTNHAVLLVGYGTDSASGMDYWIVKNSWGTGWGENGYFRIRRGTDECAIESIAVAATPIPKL

CC(C)(C)C(=O)Oc1ccc(S(=O)(=O)Nc2ccccc2C(=O)NCC(=O)O)cc1 [Silvelestat]
migration of murine neutrophils (murine neutrophils): significantly reduced
neutrophil aggregation around cancer cells in the lungs ([1]; 7 weeks post-injection, FIG. 7G): persist through 7 weeks post-injection
neutrophil aggregation around cancer cells in the lungs ([1]; 72 h after injection, Sivelestat 50 mg/kg i.p., FIG. 7F): decreases
lung metastasis (BLI) ([1]; up to 8 weeks post-injection, Sivelestat 50 mg/kg or DNase I 5 mg/kg i.p., FIG. 8G): suppressed

Cn1c(=O)oc2ccc(-c3ccc(C[C@@H](C#N)NC(=O)[C@@H]4CNCCCO4)cc3)cc21 [brensocatib, (2S)—N-{(1S)-1-cyano-2-[4-(3-methyl-2-oxo-2,3-dihydro-1,3-benzoxazol-5-yl)phenyl]ethyl}-1,4-oxazepane-2-carboxamide]
tumor sphere formation (4T1 breast cancer cells): suppressed
CTSC protein expression (CTSC): significantly reduced
capability of drug-treated neutrophils to facilitate tumor cell growth (tumor sphere formation) [2]: significantly weakened
